The values that follow come from PubChem BioAssay (NCI).

Among the test systems are A498 renal; RXF 393 renal; NCI-H226 lung; NCI-H460 lung; IGROV1 ovarian; SF-539 CNS; SNB-75 CNS; NCI-H23 lung; MCF7 breast; HCC-2998 colon.
Holding throughout (assay): NCI tumour cell line growth inhibition, 48 h

SMILES strings stand for the structures.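 Tested at 5 concentrations; 48 h exposure; 96-well plates; endpoints linearly interpolated, else capped at highest concentration. GI50 is the concentration that inhibits growth by half. TGI marks complete inhibition of growth.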

Turning to `NC(=O)c1c(NC(=O)c2ccccc2)sc2c1CCC(=O)C2`, the GI50 with A498 renal is 1.06 µM; with RXF 393 renal it was 1.17 µM; in the assay with NCI-H226 lung it was 2.2 µM; with NCI-H460 lung, 3.04 µM; in the assay with IGROV1 ovarian, 1.01 µM; in the assay on SF-539 CNS, 0.75 µM. The GI50 with SNB-75 CNS is 1.23 µM; in the assay with NCI-H23 lung, 0.627 µM; with MCF7 breast it was 1.82 µM; with HCC-2998 colon, 2.1 µM. The TGI in the assay on A498 renal was 17.2 µM; with RXF 393 renal, 5.46 µM; with NCI-H226 lung, 9.1 µM; with NCI-H460 lung it was over 100 µM; in the assay on IGROV1 ovarian, 13.3 µM; in the assay on SF-539 CNS, 3.27 µM. Further, the TGI in the assay on SNB-75 CNS worked out at 6.05 µM; in the assay with NCI-H23 lung it was 5.83 µM; with MCF7 breast, 9.02 µM; with HCC-2998 colon, 11 µM.

Turning to `O=C1CC2(CCC(O)(c3ccc4ccccc4c3)C(C(=O)c3ccc4ccccc4c3)C2)C(=O)c2ccccc2N1` (stereo not given), the TGI in the assay on A498 renal, with RXF 393 renal, in the assay on NCI-H226 lung, in the assay with NCI-H460 lung, with IGROV1 ovarian and in the assay on SF-539 CNS was over 100 µM each time. Moreover, the TGI with SNB-75 CNS, with NCI-H23 lung, in the assay with MCF7 breast and in the assay on HCC-2998 colon was over 100 µM in each case.

As for `C[n+]1c(/C=C/c2c(O)ccc3ccccc23)ccc2ccccc21`, the GI50 was 2.34 µM with A498 renal; 4.54 µM in the assay on RXF 393 renal; 5.65 µM with NCI-H226 lung; 6.32 µM with NCI-H460 lung; 4.6 µM in the assay with IGROV1 ovarian; 6.4 µM with SF-539 CNS. For the same compound, the GI50 is 6.15 µM with SNB-75 CNS, 5.1 µM in the assay on NCI-H23 lung, 1.12 µM with MCF7 breast and 6.63 µM in the assay with HCC-2998 colon. Also, the TGI is 9.43 µM with A498 renal; 10.7 µM with RXF 393 renal; 13.2 µM in the assay with NCI-H226 lung; 14.5 µM in the assay with NCI-H460 lung; 12.7 µM in the assay on IGROV1 ovarian; 13.9 µM in the assay with SF-539 CNS. Moreover, the TGI in the assay with SNB-75 CNS amounted to 14.2 µM; with NCI-H23 lung it was 13.7 µM; in the assay with MCF7 breast, 7.89 µM; with HCC-2998 colon, 13.4 µM.

Take `COc1cc2c(cc1OC)C(C(c1ccccc1)c1ccccc1)N(C)CC2` (stereo not given): the TGI with A498 renal is over 100 µM; in the assay on RXF 393 renal it was 60.2 µM; in the assay on NCI-H226 lung, over 100 µM; with NCI-H460 lung it was over 100 µM; in the assay with IGROV1 ovarian it was over 100 µM; with SF-539 CNS, over 100 µM. The TGI was 99.5 µM with SNB-75 CNS, over 100 µM in the assay on NCI-H23 lung, over 100 µM in the assay on MCF7 breast and 63.8 µM in the assay with HCC-2998 colon.

As for `C[N+](C)([O-])CCOc1cc2c(c3ccccc13)-c1ccccc1C2=O`, the TGI turned out to be 60.5 µM in the assay with A498 renal; 33.2 µM in the assay on RXF 393 renal; 78.8 µM in the assay on NCI-H226 lung; 43.2 µM with NCI-H460 lung; 99.8 µM in the assay on IGROV1 ovarian; 38.4 µM in the assay with SF-539 CNS. The TGI is 53.2 µM with SNB-75 CNS, 74.7 µM with NCI-H23 lung, over 100 µM in the assay with MCF7 breast and 29.2 µM in the assay with HCC-2998 colon.

`O=c1oc2cc(O)ccc2c(O)c1C(c1ccccc1)c1c(O)c2ccc(O)cc2oc1=O`: the TGI in the assay on A498 renal, in the assay on RXF 393 renal, in the assay on NCI-H226 lung, with NCI-H460 lung, with IGROV1 ovarian and in the assay with SF-539 CNS was over 100 µM throughout. Besides, the TGI with SNB-75 CNS, in the assay with NCI-H23 lung, with MCF7 breast and in the assay with HCC-2998 colon was over 100 µM each time.
